ChEMBL document CHEMBL1201862, “PubChem BioAssay data set” (2004)
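Growth conditions: 96-well plates. Treatment: test compound, 48 hours, 5 concentrations. Analysis: linear interpolation between bracketing concentrations; unreached endpoints set to highest concentration. Here, GI50 denotes the concentration required for 50% inhibition of growth.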 The source made the active and inactive calls. Rule as the data show it: active = GI50 up to about 1.1 µM and inactive = higher.

What was measured:
Experiment in all cases: growth of human tumour cells (NCI), 48 h
[1] = system: 786-0
[2] = system: A498
[3] = system: HCT-15
[4] = system: LOX IMVI
[5] = system: RXF 393
[6] = system: MDA-MB-435
[7] = system: OVCAR-5
[8] = system: HL-60
[9] = system: NCI-H460
[10] = system: SF-268
[11] = system: OVCAR-4
[12] = system: M14
[13] = system: K562
[14] = system: TK-10
[15] = system: SN12C
[16] = system: OVCAR-3
[17] = system: SNB-19
[18] = system: ACHN
[19] = system: SR
[20] = system: SNB-75
[21] = system: Malme-3M
[22] = system: COLO 205
[23] = system: CAKI-1
[24] = system: RPMI-8226
[25] = system: EKVX
[26] = system: UO-31
[27] = system: HOP-92
[28] = system: MDA-N
[29] = system: Hs-578T
[30] = system: MOLT-4
[31] = system: MCF7
[32] = system: SF-539
[33] = system: CCRF-CEM
[34] = system: KM12
[35] = system: SK-OV-3
[36] = system: HCT-116
[37] = system: T47D
[38] = system: BT-549
[39] = system: HOP-62
[40] = system: DU-145
[41] = system: NCI/ADR-RES
[42] = system: NCI-H522
[43] = system: PC-3
[44] = system: SK-MEL-2
[45] = system: A549
[46] = system: UACC-62
[47] = system: OVCAR-8
[48] = system: NCI-H226
[49] = system: U-251
[50] = system: NCI-H23
[51] = system: IGROV-1
[52] = system: HT-29
[53] = system: SW-620
[54] = system: UACC-257
[55] = system: SF-295
[56] = system: SK-MEL-5

With `O=c1c2cc(S(=O)(=O)O)ccc2nc(COc2ccc(Oc3ccc(Cl)cc3Cl)cc2)n1-c1ccc(Oc2ccc(Cl)cc2)cc1Cl` the GI50 [1] was 20 µM (inactive), the GI50 [2] was 23.3 µM (inactive) and the GI50 [3] was 19.9 µM. For the same compound, the GI50 [4] was 16.4 µM (inactive), the GI50 [5] was 0.0752 µM (active) and the GI50 [6] was 19.7 µM (inactive). For the same compound, the GI50 [7] was 23.2 µM (inactive), the GI50 [8] was 19.2 µM (inactive) and the GI50 [9] was 16.6 µM (inactive). For the same compound, the GI50 [10] was 12.7 µM (inactive), the GI50 [11] was 25.2 µM (inactive) and the GI50 [12] was 19.4 µM (inactive). The GI50 [13] was 28.2 µM (inactive), the GI50 [14] was 22 µM (inactive) and the GI50 [15] was 17.7 µM (inactive). The GI50 [16] was 18.3 µM (inactive), the GI50 [17] was 26.4 µM (inactive) and the GI50 [18] was 24.5 µM (inactive). The GI50 [19] was 15.2 µM (inactive), the GI50 [20] was 22.6 µM (inactive) and the GI50 [21] was 28.1 µM (inactive). For the same compound, the GI50 [22] was 17.9 µM (inactive), the GI50 [23] was 30.8 µM (inactive) and the GI50 [24] was 21.1 µM (inactive). For the same compound, the GI50 [25] was 17.6 µM (inactive), the GI50 [26] was 13.9 µM (inactive) and the GI50 [27] was 12.8 µM (inactive). For the same compound, the GI50 [28] was 23.7 µM (inactive), the GI50 [29] was 20 µM (inactive) and the GI50 [30] was 10.4 µM (inactive). The GI50 [31] was 20.7 µM (inactive), the GI50 [32] was 16.7 µM (inactive) and the GI50 [33] was 27.7 µM (inactive). The GI50 [34] was 28.5 µM (inactive), the GI50 [35] was 22.6 µM (inactive) and the GI50 [36] was 20.8 µM (inactive). The GI50 [37] was 33.1 µM (inactive), the GI50 [38] was 17.1 µM (inactive) and the GI50 [39] was 21.4 µM (inactive). The GI50 [40] was 38.3 µM (inactive), the GI50 [41] was 18.3 µM (inactive) and the GI50 [42] was 20.4 µM (inactive). The GI50 [43] was 26.7 µM (inactive), the GI50 [44] was 16.5 µM (inactive) and the GI50 [45] was 19.3 µM (inactive). The GI50 [46] was 17.4 µM (inactive), the GI50 [47] was 19 µM (inactive) and the GI50 [48] was 19.5 µM (inactive). For the same compound, the GI50 [49] was 16 µM (inactive), the GI50 [50] was 21.7 µM (inactive) and the GI50 [51] was 23.1 µM (inactive). For the same compound, the GI50 [52] was 18.7 µM (inactive), the GI50 [53] was 21.5 µM (inactive) and the GI50 [54] was 25.2 µM (inactive). For the same compound, the GI50 [55] was 18.3 µM (inactive) and the GI50 [56] was 18.6 µM (inactive).

With `Cc1ccc2[nH]c3[nH]c(=O)[nH]c(=O)c3c2c1` the GI50 [1] was > 100 µM (inactive), the GI50 [2] was > 100 µM (inactive) and the GI50 [3] was > 100 µM. The GI50 [4] was > 100 µM (inactive), the GI50 [5] was > 100 µM (inactive) and the GI50 [6] was > 100 µM (inactive). For the same compound, the GI50 [7] was > 100 µM (inactive), the GI50 [8] was > 100 µM (inactive) and the GI50 [10] was > 100 µM (inactive). The GI50 [12] was > 100 µM (inactive), the GI50 [13] was > 100 µM (inactive) and the GI50 [14] was > 100 µM (inactive). The GI50 [15] was > 100 µM (inactive), the GI50 [16] was > 100 µM (inactive) and the GI50 [17] was > 100 µM (inactive). The GI50 [18] was > 100 µM (inactive), the GI50 [19] was > 10 µM (inactive) and the GI50 [20] was > 100 µM (inactive). The GI50 [21] was > 100 µM (inactive), the GI50 [22] was > 100 µM (inactive) and the GI50 [23] was > 100 µM (inactive). For the same compound, the GI50 [24] was > 100 µM (inactive), the GI50 [25] was > 100 µM (inactive) and the GI50 [26] was > 100 µM (inactive). For the same compound, the GI50 [27] was > 100 µM (inactive), the GI50 [28] was > 100 µM (inactive) and the GI50 [29] was > 100 µM (inactive). The GI50 [30] was > 100 µM (inactive), the GI50 [31] was > 100 µM (inactive) and the GI50 [32] was > 100 µM (inactive). For the same compound, the GI50 [33] was > 100 µM (inactive), the GI50 [34] was 43.6 µM (inactive) and the GI50 [35] was > 100 µM (inactive). The GI50 [36] was > 100 µM (inactive), the GI50 [37] was > 100 µM (inactive) and the GI50 [38] was > 100 µM (inactive). The GI50 [39] was > 100 µM (inactive), the GI50 [40] was > 100 µM (inactive) and the GI50 [41] was > 100 µM (inactive). The GI50 [42] was > 100 µM (inactive), the GI50 [44] was > 100 µM (inactive) and the GI50 [45] was > 100 µM (inactive). For the same compound, the GI50 [46] was > 100 µM (inactive), the GI50 [47] was > 100 µM (inactive) and the GI50 [48] was > 100 µM (inactive). For the same compound, the GI50 [50] was > 100 µM (inactive), the GI50 [51] was > 100 µM (inactive) and the GI50 [52] was > 100 µM (inactive). The GI50 [53] was > 100 µM (inactive), the GI50 [54] was > 100 µM (inactive) and the GI50 [55] was 58.3 µM (inactive). The GI50 [56] was > 100 µM (inactive).
